IC50 and inhibition data for 13 molecules are collected here from US11655235B2, “Pyrrolidine and piperidine compounds” (YUHAN CORPORATION, priority 2019, dated 2023).

Each structure is given as a SMILES string. Like-named read-outs stand apart in the source and are kept apart here. A value given as a limit tells only on which side of the number the result lay.

Holding throughout (format): biochemical
One experiment has as its target DPP4 (Homo sapiens, UniProt P27487). Briefly: DPP4 inhibition, fluorogenic substrate H-Gly-Pro-AMC. On the set-up: purchased R&D Systems. The settings on record: for inhibition at 1 µM: read-out: hDPP4 inhibition % at 1 μM.
In another experiment the target is T1, recombinant human DPP9 (Homo sapiens, UniProt Q86TI2).
T1 construct: purchased R&D Systems
As to the kind of experiment: DPP9 inhibition, fluorogenic substrate H-Gly-Pro-AMC. The method in brief:
(§1)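 Enzyme per reaction: 50 ng DPP9, 20 ng DPP8, 10 ng each DPP7 and PREP. Compounds were serially diluted (8 points, up to 0.5% DMSO) and incubated at 25 °C.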

The target of the next experiment is T2, recombinant human PREP (Homo sapiens, UniProt P48147).
T2 construct: purchased R&D System
T2 sequence (P48147 1-710): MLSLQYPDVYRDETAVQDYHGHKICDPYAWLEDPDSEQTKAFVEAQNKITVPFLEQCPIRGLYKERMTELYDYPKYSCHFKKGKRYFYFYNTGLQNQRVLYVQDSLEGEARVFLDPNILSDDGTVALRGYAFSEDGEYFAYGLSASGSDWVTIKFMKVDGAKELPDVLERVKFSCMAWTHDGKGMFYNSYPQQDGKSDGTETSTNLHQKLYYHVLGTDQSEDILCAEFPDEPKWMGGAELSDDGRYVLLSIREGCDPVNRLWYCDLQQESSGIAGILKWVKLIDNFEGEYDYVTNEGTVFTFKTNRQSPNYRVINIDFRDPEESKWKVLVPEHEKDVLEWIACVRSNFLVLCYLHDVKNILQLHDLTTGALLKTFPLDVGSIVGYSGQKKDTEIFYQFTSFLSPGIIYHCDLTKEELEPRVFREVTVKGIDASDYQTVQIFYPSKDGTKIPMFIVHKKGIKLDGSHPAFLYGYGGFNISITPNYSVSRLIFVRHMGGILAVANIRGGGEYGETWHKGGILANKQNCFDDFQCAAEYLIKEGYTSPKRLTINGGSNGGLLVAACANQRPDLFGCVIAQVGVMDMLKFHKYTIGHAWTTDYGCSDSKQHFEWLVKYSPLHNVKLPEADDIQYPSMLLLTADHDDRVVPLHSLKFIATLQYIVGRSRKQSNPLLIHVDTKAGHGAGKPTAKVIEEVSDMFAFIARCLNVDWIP
Briefly: PREP inhibition, fluorogenic substrate Z-Gly-Pro-AMC. The conditions noted are these: Inhibitory Activity (IC50, nM) PREP. The method in brief:
as §1

The target in a further experiment is T3, Recombinant human FAP (Homo sapiens, UniProt Q12884).
T3 construct: purchased R&D systems
T3 sequence (Q12884 1-760): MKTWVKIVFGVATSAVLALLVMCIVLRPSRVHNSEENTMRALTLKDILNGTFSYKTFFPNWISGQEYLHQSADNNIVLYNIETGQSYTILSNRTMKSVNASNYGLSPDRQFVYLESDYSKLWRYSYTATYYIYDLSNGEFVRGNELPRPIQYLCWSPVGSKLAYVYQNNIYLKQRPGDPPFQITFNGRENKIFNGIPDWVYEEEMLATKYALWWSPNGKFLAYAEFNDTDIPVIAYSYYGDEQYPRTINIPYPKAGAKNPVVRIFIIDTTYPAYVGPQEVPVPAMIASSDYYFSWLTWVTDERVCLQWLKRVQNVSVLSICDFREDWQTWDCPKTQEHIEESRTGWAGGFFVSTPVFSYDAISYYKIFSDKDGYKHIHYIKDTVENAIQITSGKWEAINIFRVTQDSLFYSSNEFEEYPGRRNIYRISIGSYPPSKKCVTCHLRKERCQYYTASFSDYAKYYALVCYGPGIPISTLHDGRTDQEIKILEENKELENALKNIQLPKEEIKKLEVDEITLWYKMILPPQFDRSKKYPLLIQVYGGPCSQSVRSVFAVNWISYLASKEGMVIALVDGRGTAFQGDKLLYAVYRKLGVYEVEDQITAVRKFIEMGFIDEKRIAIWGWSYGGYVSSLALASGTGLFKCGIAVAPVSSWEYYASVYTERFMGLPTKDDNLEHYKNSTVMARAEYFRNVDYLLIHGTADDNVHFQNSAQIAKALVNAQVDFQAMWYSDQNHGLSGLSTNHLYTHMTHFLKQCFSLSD
Briefly: FAP inhibition, fluorogenic substrate Z-Gly-Pro-AMC. A digest of the protocol: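 Recombinant human FAP, 10 ng per reaction, in 50 mM Tris pH 7.5 with 1 M NaCl and 1 mg/ml BSA at 25° C; substrate Z-Gly-Pro-AMC, ≤0.1% DMSO. AMC fluorescence read at ex 380/em 460 nm; % signal-rate decrease vs no-inhibitor control, 8-point curves fitted to a four-parameter logistic for IC50.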

The target of a further experiment is T4, recombinant human DPP8 (Homo sapiens, UniProt Q6V1X1).
T4 construct: purchased PBS Bioscience
As to the kind of experiment: DPP8 inhibition, fluorogenic substrate Z-Ala-Pro-AMC. A digest of the protocol:
as §1

The target of a further experiment is T5, recombinant human DPP7 (Homo sapiens, UniProt Q9UHL4).
T5 construct: purchased R&D Systems
As to the kind of experiment: DPP7 inhibition, fluorogenic substrate Lys-Pro-AMC. A digest of the protocol:
as §1

Where [1] appears, read: recombinant human FAP, substrate Z-Gly-Pro-AMC.
Where [2] appears, read: 25° C., H-Gly-Pro-AMC substrate.
Where [3] appears, read: 25° C., Z-Gly-Pro-AMC substrate.
Setting [4] is: 25° C., Z-Ala-Pro-AMC substrate.

T1 sequence (Q86TI2 whole entry): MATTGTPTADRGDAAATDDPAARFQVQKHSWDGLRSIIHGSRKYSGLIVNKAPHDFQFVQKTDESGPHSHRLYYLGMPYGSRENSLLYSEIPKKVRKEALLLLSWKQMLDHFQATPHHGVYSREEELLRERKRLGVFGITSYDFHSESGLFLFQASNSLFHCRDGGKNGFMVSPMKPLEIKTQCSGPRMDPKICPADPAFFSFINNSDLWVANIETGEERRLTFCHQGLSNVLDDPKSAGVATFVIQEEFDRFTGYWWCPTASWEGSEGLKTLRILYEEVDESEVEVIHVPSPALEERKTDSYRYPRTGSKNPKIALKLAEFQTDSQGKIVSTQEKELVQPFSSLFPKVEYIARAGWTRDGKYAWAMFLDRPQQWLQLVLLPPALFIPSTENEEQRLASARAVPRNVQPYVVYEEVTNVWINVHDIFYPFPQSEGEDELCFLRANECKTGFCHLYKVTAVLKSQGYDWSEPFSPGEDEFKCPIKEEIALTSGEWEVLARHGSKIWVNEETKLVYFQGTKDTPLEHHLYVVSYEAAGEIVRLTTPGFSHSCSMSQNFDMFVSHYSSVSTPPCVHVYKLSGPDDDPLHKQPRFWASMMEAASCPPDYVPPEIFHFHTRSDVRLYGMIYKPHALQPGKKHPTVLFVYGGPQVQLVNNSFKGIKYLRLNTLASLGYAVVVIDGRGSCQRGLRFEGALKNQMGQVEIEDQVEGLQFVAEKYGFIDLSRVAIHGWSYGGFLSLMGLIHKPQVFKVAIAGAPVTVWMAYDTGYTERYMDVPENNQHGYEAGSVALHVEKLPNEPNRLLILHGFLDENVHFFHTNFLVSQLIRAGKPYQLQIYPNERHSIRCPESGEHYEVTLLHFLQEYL
T4 sequence (Q6V1X1 whole entry): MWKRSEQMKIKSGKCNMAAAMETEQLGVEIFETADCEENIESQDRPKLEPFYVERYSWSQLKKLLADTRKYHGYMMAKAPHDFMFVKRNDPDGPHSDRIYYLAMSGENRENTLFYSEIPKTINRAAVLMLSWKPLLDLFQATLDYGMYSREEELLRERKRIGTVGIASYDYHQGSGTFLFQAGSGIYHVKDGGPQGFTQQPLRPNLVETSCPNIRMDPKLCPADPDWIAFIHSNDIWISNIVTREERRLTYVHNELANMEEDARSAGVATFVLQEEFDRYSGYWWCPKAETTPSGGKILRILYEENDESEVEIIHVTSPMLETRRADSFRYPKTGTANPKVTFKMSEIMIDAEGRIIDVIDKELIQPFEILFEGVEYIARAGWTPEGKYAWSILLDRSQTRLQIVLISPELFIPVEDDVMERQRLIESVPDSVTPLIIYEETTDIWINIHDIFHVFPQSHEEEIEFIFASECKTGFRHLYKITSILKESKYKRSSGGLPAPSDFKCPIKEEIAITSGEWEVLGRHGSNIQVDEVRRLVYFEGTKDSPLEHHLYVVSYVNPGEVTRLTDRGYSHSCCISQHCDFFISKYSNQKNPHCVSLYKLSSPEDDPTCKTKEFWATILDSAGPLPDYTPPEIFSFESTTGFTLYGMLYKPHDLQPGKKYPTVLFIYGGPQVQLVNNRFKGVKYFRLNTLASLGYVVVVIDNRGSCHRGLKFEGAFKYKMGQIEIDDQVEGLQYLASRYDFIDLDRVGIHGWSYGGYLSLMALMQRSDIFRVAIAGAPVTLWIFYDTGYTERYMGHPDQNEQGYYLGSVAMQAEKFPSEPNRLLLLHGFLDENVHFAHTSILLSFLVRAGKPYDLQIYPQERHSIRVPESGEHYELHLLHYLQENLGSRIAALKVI
Chain of DPP4 (P27487 whole entry): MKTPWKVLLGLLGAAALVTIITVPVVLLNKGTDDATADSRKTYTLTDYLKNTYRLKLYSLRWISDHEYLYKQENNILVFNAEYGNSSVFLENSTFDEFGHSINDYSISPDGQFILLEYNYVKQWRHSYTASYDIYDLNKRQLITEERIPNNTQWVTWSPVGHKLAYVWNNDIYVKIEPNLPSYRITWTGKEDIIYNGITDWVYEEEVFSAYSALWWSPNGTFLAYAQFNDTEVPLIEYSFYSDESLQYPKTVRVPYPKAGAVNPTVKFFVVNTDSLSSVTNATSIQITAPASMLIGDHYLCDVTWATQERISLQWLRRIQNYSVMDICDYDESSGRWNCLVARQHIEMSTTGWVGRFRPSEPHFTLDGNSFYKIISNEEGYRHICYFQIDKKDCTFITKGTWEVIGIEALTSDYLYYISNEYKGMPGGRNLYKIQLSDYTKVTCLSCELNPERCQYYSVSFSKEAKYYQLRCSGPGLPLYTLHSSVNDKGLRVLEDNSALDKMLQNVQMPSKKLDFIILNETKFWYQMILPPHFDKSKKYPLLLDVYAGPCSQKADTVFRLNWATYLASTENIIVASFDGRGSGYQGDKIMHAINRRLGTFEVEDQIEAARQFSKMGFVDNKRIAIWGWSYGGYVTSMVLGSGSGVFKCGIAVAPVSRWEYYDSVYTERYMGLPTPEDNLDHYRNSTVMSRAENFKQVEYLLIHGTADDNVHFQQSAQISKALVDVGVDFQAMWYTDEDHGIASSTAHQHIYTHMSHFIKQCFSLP

A word on the IC50: it is the midpoint of a concentration-inhibition curve. As for `N#C[C@@H]1C[C@H](F)CN1C(=O)CN1CC[C@H](Nc2cc(C(F)(F)F)cc3ncccc23)C1` [Example 258, (2S,4S)-4-fluoro-1-[2-[(3S)-3-[[7-(trifluoromethyl)-5-quinolyl]amino]pyrrolidin-1-yl]acetyl]pyrrolidine-2-carbonitrile], the IC50 was 1.83 µM on DPP4 (recombinant human DPP4); 7.97 µM on recombinant human DPP9 (recombinant human DPP9); 1280 nM on recombinant human PREP (recombinant human PREP); 0.001 µM at Recombinant human FAP (setting [1]); above 100 µM at recombinant human DPP8 (recombinant human DPP8); 1.39 µM at recombinant human DPP7 (recombinant human DPP7).

A word on the inhibition: it is the drop in the measured response relative to a control, in per cent. Turning to `N#C[C@@H]1CCCN1C(=O)CN1CC[C@H](NC(=O)c2coc3cc(F)ccc23)C1` [Example 44, N—((S)-1-(2-((S)-2-cyanopyrrolidin-1-yl)-2-oxoethyl)pyrrolidin-3-yl)-6-fluorobenzofuran-3-carboxamide], the inhibition at 1 µM at DPP4 came to 1.4%. Moreover, the IC50 is above 100 µM at recombinant human DPP9 (setting [2]); 12100 nM on recombinant human PREP (setting [3]); 0.00507 µM on Recombinant human FAP (setting [3]); 46.2 µM on recombinant human DPP8 (setting [4]); 1.72 µM on recombinant human DPP7.

Turning to `N#C[C@@H]1CC(F)(F)CN1C(=O)CN1CC[C@H](Nc2cccc3ccoc23)C1` [Example 11, (S)-1-(2-((S)-3-(benzofuran-7-ylamino)pyrrolidin-1-yl)acetyl)-4,4-difluoropyrrolidine-2-carbonitrile], the IC50 against DPP4 (setting [2]) was above 1 µM; at recombinant human DPP9 (setting [2]) it was 17.1 µM; at recombinant human PREP (setting [3]), above 100000 nM; on Recombinant human FAP (setting [3]) it was 0.0013 µM; on recombinant human DPP8 (setting [4]), 0.228 µM; on recombinant human DPP7, 0.0956 µM.

As to `N#C[C@@H]1CCCN1C(=O)CN1CC[C@H](NC(=O)c2coc3ccc(F)cc23)C1` [Example 43, N—((S)-1-(2-((S)-2-cyanopyrrolidin-1-yl)-2-oxoethyl)pyrrolidin-3-yl)-5-fluorobenzofuran-3-carboxamide], the inhibition at 1 µM on DPP4 worked out at 0.2%. Further, the IC50 on recombinant human DPP9 (setting [2]) was above 100 µM; on recombinant human PREP (setting [3]) it was 8350 nM; at Recombinant human FAP (setting [3]), 0.00994 µM; at recombinant human DPP8 (setting [4]), 44.7 µM; on recombinant human DPP7, 3.37 µM.

In the case of `N#C[C@@H]1CC(F)(F)CN1C(=O)CN1CC[C@H](Oc2ccc(Cl)c3cccnc23)C1` [Example 109, (S)-1-(2-((S)-3-((5-chloroquinolin-8-yl)oxy)pyrrolidin-1-yl)acetyl)-4,4-difluoropyrrolidine-2-carbonitrile], the IC50 against DPP4 (setting [2]) is above 1 µM; on recombinant human DPP9 (setting [2]) it was 4.43 µM; at recombinant human PREP (setting [3]) it was 4140 nM; at Recombinant human FAP (setting [3]), 0.0018 µM; at recombinant human DPP8 (setting [4]), 2.17 µM; on recombinant human DPP7, 0.0383 µM.

With `N#C[C@@H]1C[C@H](F)CN1C(=O)CN1CC[C@H](Nc2c(F)ccc3ncccc23)C1` [Example 261, (2S,4S)-4-fluoro-1-[2-[(3S)-3-[(6-fluoro-5-quinolyl)amino]pyrrolidin-1-yl]acetyl]pyrrolidine-2-carbonitrile], the IC50 is 1.17 µM at DPP4 (recombinant human DPP4); 9.42 µM at recombinant human DPP9 (recombinant human DPP9); 3940 nM at recombinant human PREP (recombinant human PREP); 0.002 µM at Recombinant human FAP (setting [1]); 20.8 µM at recombinant human DPP8 (recombinant human DPP8); 6.57 µM at recombinant human DPP7 (recombinant human DPP7).

Regarding `N#C[C@@H]1C[C@H](F)CN1C(=O)CN1CCC(Oc2ccc3ccncc3c2)CC1` [Example 423, (2S,4S)-4-fluoro-1-[2-[4-(7-isoquinolyloxy)-1-piperidyl]acetyl]pyrrolidine-2-carbonitrile], the IC50 was 8.99 µM at DPP4 (recombinant human DPP4); 9.33 µM on recombinant human DPP9 (recombinant human DPP9); 990 nM on recombinant human PREP (recombinant human PREP); 0.0093 µM on Recombinant human FAP (setting [1]); 3.46 µM on recombinant human DPP8 (recombinant human DPP8); 2.05 µM on recombinant human DPP7 (recombinant human DPP7).

In the case of `N#C[C@@H]1CCCN1C(=O)CN1CC[C@H](NC(=O)c2coc3cc(O)ccc23)C1` [Example 49, N—((S)-1-(2-((S)-2-cyanopyrrolidin-1-yl)-2-oxoethyl)pyrrolidin-3-yl)-6-hydroxybenzofuran-3-carboxamide], at DPP4, the inhibition at 1 µM stood at 0.6%. Moreover, the IC50 at recombinant human DPP9 (setting [2]) is 92.6 µM; at recombinant human PREP (setting [3]), 8360 nM; at Recombinant human FAP (setting [3]), 0.00442 µM; on recombinant human DPP8 (setting [4]), 12.3 µM; at recombinant human DPP7 it was 4.37 µM.

With `N#C[C@@H]1C[C@H](F)CN1C(=O)CN1CCC(Nc2cccc3c(Cl)nccc23)CC1` [Example 351, (2S,4S)-1-[2-[4-[(1-chloro-5-isoquinolyl)amino]-1-piperidyl]acetyl]-4-fluoro-pyrrolidine-2-carbonitrile], the IC50 at DPP4 (recombinant human DPP4) was determined as 6.73 µM; on recombinant human DPP9 (recombinant human DPP9) it was 4.53 µM; at recombinant human PREP (recombinant human PREP) it was 3280 nM; on Recombinant human FAP (setting [1]), 0.0034 µM; at recombinant human DPP8 (recombinant human DPP8) it was 2.81 µM; on recombinant human DPP7 (recombinant human DPP7), 0.842 µM.

Take `COc1ccc2nc(C(F)(F)F)cc(OC3CCN(CC(=O)N4C[C@@H](F)C[C@H]4C#N)CC3)c2c1` [Example 414, (2S,4S)-4-fluoro-1-[2-[4-[[6-methoxy-2-(trifluoromethyl)-4-quinolyl]oxy]-1-piperidyl]acetyl]pyrrolidine-2-carbonitrile]: the IC50 on DPP4 (recombinant human DPP4) is above 10 µM; at recombinant human DPP9 (recombinant human DPP9) it was above 100 µM; on recombinant human PREP (recombinant human PREP), 57500 nM; at Recombinant human FAP (setting [1]), 0.0043 µM; at recombinant human DPP8 (recombinant human DPP8), 44 µM; at recombinant human DPP7 (recombinant human DPP7), 8.74 µM.

Regarding `N#C[C@@H]1CCCN1C(=O)CN1CC[C@H](Nc2ccc(OC(F)(F)F)c3ncccc23)C1` [Example 246, (2S)-1-[2-[(3S)-3-[[8-(trifluoromethoxy)-5-quinolyl]amino]pyrrolidin-1-yl]acetyl]pyrrolidine-2-carbonitrile], the IC50 on DPP4 (recombinant human DPP4) is above 10 µM; on recombinant human DPP9 (recombinant human DPP9) it was 21 µM; on recombinant human PREP (recombinant human PREP), 11300 nM; at Recombinant human FAP (setting [1]), 0.0009 µM; on recombinant human DPP8 (recombinant human DPP8) it was above 30 µM; at recombinant human DPP7 (recombinant human DPP7) it was 2.56 µM.

On to `N#C[C@@H]1CCCN1C(=O)CN1CC[C@H](NC(=O)c2coc3c(F)cc(F)cc23)C1` [Example 51, N—((S)-1-(2-((S)-2-cyanopyrrolidin-1-yl)-2-oxoethyl)pyrrolidin-3-yl)-5,7-difluorobenzofuran-3-carboxamide], for which the inhibition at 1 µM at DPP4 amounted to 0.6%. Moreover, the IC50 on recombinant human DPP9 (setting [2]) was above 100 µM; on recombinant human PREP (setting [3]), 13400 nM; at Recombinant human FAP (setting [3]), 0.0109 µM; on recombinant human DPP8 (setting [4]), 38.9 µM; at recombinant human DPP7, 3.32 µM.

Turning to `Cc1ccc2ncccc2c1N[C@H]1CCN(CC(=O)N2CCC[C@H]2C#N)C1` [Example 239, (2S)-1-[2-[(3S)-3-[(6-methyl-5-quinolyl)amino]pyrrolidin-1-yl]acetyl]pyrrolidine-2-carbonitrile], the IC50 at DPP4 (recombinant human DPP4) is above 10 µM; on recombinant human DPP9 (recombinant human DPP9), 43.9 µM; at recombinant human PREP (recombinant human PREP), 9980 nM; at Recombinant human FAP (setting [1]) it was 0.006 µM; at recombinant human DPP8 (recombinant human DPP8) it was 74.3 µM; at recombinant human DPP7 (recombinant human DPP7) it was 7.28 µM.
